Where “and” joins values, the source holds several entries; their conditions need not be identical. Equal entries are not always repeated.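 Tested at 5 concentrations; 48 h exposure; 96-well plates; endpoints linearly interpolated, else capped at highest concentration. At the GI50, growth is halved. TGI denotes the concentration required for complete inhibition of growth.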 *1 amine or outer side, *2 acyl side, *3 side chain or, on linkers, in order; H or OH if unused. Where a SMILES comes first, the peptide text is derived from it. Bridges are numbered along the chain shown (N, C = ends). Roman numbers before positions name the chains, in order. [ ]: non-standard residue; d: D form. Actinocin(9to1) = Cc1c2oc3c(C)ccc(C(=O)[*:1])c3nc-2c(C(=O)[*:2])c(N)c1=O; NMeT = CN[CH](C(=O)O)[CH](C)O; Sar = CNCC(=O)O
Key:
Assay in all cases: NCI tumour cell line growth inhibition, 48 h
XF 498 CNS = system: XF 498 CNS
DMS 273 small cell lung = system: DMS 273 small cell lung
SNB-78 CNS = system: SNB-78 CNS
LXFL 529 NSCLC = system: LXFL 529 NSCLC
RXF-631 renal = system: RXF-631 renal
KM20L2 colon = system: KM20L2 colon
M19-MEL melanoma = system: M19-MEL melanoma
T-47D breast = system: T-47D breast
MDA-N = system: MDA-N

Row | Structure (SMILES) | TGI (XF 498 CNS) [µM] | TGI (DMS 273 small cell lung) [µM] | TGI (SNB-78 CNS) [µM] | TGI (LXFL 529 NSCLC) [µM] | TGI (RXF-631 renal) [µM] | TGI (KM20L2 colon) [µM] | TGI (M19-MEL melanoma) [µM] | also measured
1 | COc1ccc(-c2cc(=O)c3ccccc3o2)cc1N | 91.1 | > 100 | > 100 | > 100 | > 100 | > 100 | > 100 | –
2 | CC(C)[O-].CC(C)[O-].O=C1C=C([O-])C(=O)c2ccccc21.O=C1C=C([O-])C(=O)c2ccccc21.[Ti+4] | > 100 | > 100 | – | > 100 | – | > 100 | > 100 | GI50 (XF 498 CNS): > 100 µM; GI50 (DMS 273 small cell lung): 34.9 µM; GI50 (LXFL 529 NSCLC): 80.8 µM; GI50 (KM20L2 colon): 44.1 µM; GI50 (M19-MEL melanoma): 4.42 µM
3 | O=C(CCc1nnc2s/c(=C\c3ccc(Cl)c(Cl)c3)c(=O)n12)Nc1ccc(Cl)c(Cl)c1 | > 100 | – | – | > 100 | – | > 100 | > 100 | –
4 | O=C(Nc1ccc(Cl)cc1Cl)C1C(=O)C(=O)N(c2ccc(Cl)cc2Cl)C1=O (centres undefined) | – | – | > 100 | > 100 | – | > 100 | > 100 | –
5 | COc1ccc2c3c([nH]c2c1[N+](=O)[O-])C(C)N(Cc1ccc([N+](=O)[O-])cc1)CC3 (centres undefined) | – | 27.8 | > 100 | 59.8 | – | 45 | – | –
6 | COc1cc(OC)c(SSCCCCS(=O)O)c(OC)c1 | 27.6 | 34.8 | 29.4 | 25.2 | – | 37.9 | 22.9 | –
7 | O=C(O)CCCSc1ccccc1 | – | – | – | – | – | – | – | TGI (T-47D breast): > 100 µM; TGI (MDA-N): > 100 µM
8 | CCOc1ccc(N=Cc2ccc3cc(C)ccc3n2)cc1 | > 100 | > 100 | > 100 | > 100 | > 100 | > 100 | > 100 | –
9 | Cc1cccc(C)c1NC(=O)C(=O)CC(=O)/C=C/c1ccccc1 | – | – | – | – | – | – | – | TGI (T-47D breast): > 100 µM; TGI (MDA-N): > 100 µM
10 | Cc1c2oc3c(C)ccc(C(=O)NC4C(=O)NC(C(C)C)C(=O)N5CCCC5C(=O)N(C)CC(=O)N(C)C(C(C)O)C(=O)OC4C)c3nc-2c(C(=O)NC2C(=O)NC(C(C)C)C(=O)N3CCCC3C(=O)N(C)CC(=O)N(C)C(C(C)O)C(=O)OC2C)c(N)c1=O (centres undefined) (I: TVP[Sar][NMeT] / II: TVP[Sar][NMeT]; ester I:1-I:C, II:1-II:C; linker I:N-II:N via Actinocin(9to1); configuration not given here) | – | – | – | – | – | – | – | GI50 (T-47D breast): 2.67 µM and > 1 µM; TGI (T-47D breast): > 100 µM; TGI (MDA-N): 16.9 µM and > 1 µM
11 | C/C=C1\C=C(OC)CN(CCc2c[nH]c3ccccc23)C1 | > 100 | > 100 | – | > 100 | – | > 100 | > 100 | –
12 | NC[C@H]1Nc2ccccc2[C@@H](O)C1O (some centres undefined) | – | – | – | – | – | – | – | TGI (T-47D breast): > 100 µM; TGI (MDA-N): > 100 µM
13 | CCN(CC)CCCNC(=O)C1COc2cc(-c3cc(=O)c4ccccc4o3)ccc2O1 (centres undefined) | – | > 100 | > 100 | > 100 | > 100 | > 100 | 76.4 | –
14 | Cc1cc(=O)oc2c(C)c(O)ccc12 | – | – | – | – | – | – | – | TGI (T-47D breast): > 100 µM; TGI (MDA-N): > 100 µM
15 | Cc1ccccc1NC(=O)c1c(C)oc2c1C(=O)c1ccccc1C2=O | > 70 | > 100 | 5.98 | > 55.9 | – | > 100 | 26.6 | –
16 | C=C1C(=O)OC2C1CCC(C)C1C=CC(=O)C12C (centres undefined) | 13.4 | 23.5 | 23.3 | 3.35 | – | 14.6 | 14.4 | TGI (T-47D breast): 4.88 µM; TGI (MDA-N): 3.88 µM
17 | Cn1nc(-c2ccccc2)c(C(=O)/C=C/c2ccc(Cl)cc2)c(N2CCCCC2)c1=O | 3.91 | 6.75 | – | 3.33 | 9.79 | 6.46 | 5.07 | –
18 | CCOC(=O)N1c2c(ccn2C)-c2ccn(C)c2N1C(=O)OCC | 30.7 | – | – | 30.9 | 45.8 | 27.8 | 80 | –
19 | O=C1c2ccccc2-c2oc(=O)c3ccccc3c21 | – | – | – | – | – | – | – | TGI (T-47D breast): > 100 µM; TGI (MDA-N): > 100 µM
20 | O=C1O[C@H](c2ccccc2)[C@@H]2CC3(CCN12)OCCO3 | > 100 | > 100 | – | > 100 | > 100 | > 100 | – | –
21 | CC(=O)OC[C@]1(C)CCCC2(C)C1CCC1C=C(C)[C@H]3CCC12C3 (some centres undefined) | – | – | > 100 | > 100 | – | > 100 | > 100 | –
22 | CC(C)(C)CC(C)(C)c1cc2c(O)c(c1)Cc1cc(C(C)(C)CC(C)(C)C)cc(c1O)Cc1cc(C(C)(C)CC(C)(C)C)cc(c1O)Cc1cc(C(C)(C)CC(C)(C)C)cc(c1O)Cc1cc(C(C)(C)CC(C)(C)C)cc(c1O)C2 | > 100 | > 100 | > 100 | > 100 | – | > 100 | > 100 | –

Row | Structure (SMILES) | TGI (XF 498 CNS) [µM] | TGI (DMS 273 small cell lung) [µM] | TGI (SNB-78 CNS) [µM] | TGI (LXFL 529 NSCLC) [µM] | TGI (RXF-631 renal) [µM] | TGI (KM20L2 colon) [µM] | TGI (M19-MEL melanoma) [µM] | also measured
23 | O=C(O)Cc1cc(=O)[nH]c2c1/C(=N/O)CCC2 | > 100 | – | – | > 100 | – | – | – | –
24 | CC(=O)[CH-]C(=O)c1ccccc1.CC(=O)[CH-]C(=O)c1ccccc1.CC(C)CCCC(C)[C@H]1CCC2[C@@H]3CC=C4C[C@@H]([O-])CC[C@]4(C)C3CC[C@@]21C.CC(C)CCCC(C)[C@H]1CCC2[C@@H]3CC=C4C[C@@H]([O-])CC[C@]4(C)C3CC[C@@]21C.[Ti+4] (some centres undefined) | – | > 100 | – | > 100 | – | > 100 | – | GI50 (DMS 273 small cell lung): > 100 µM; GI50 (LXFL 529 NSCLC): > 100 µM; GI50 (KM20L2 colon): > 100 µM
25 | CC1=C[C@]2(O)C(=O)[C@H](C)C[C@H]3[C@@H](CC[C@@](C)(O)/C=C\2C1=O)C3(C)C | 32.8 | 52.3 | 82.5 | 37.9 | > 74.3 | 19.5 | 33.4 | –
26 | O=C1Cc2c([nH]c3ccccc23)-c2ccccc2N1 | 91.8 | > 100 | > 100 | > 100 | – | 50.7 | > 100 | –
27 | CC1=C(C(=O)Nc2cc(=O)n(C)c(=O)n2C)C(c2cccc([N+](=O)[O-])c2)C(C(=O)Nc2cc(=O)n(C)c(=O)n2C)=C(C)N1 | – | – | > 100 | > 100 | – | > 100 | > 100 | –
28 | C#CCOCn1cnc2c(Sc3c([N+](=O)[O-])ncn3C)ncnc21 | > 100 | > 100 | – | > 100 | > 100 | > 100 | > 100 | –
29 | CCOC(=O)Cc1ccc2c(c1O)C(=O)c1c(ccc(CC(=O)OCC)c1O)C2=O | > 100 | > 100 | > 100 | > 100 | – | > 100 | > 100 | –
30 | O=c1ccs[nH]1 | – | – | – | – | – | – | – | TGI (T-47D breast): 55.5 µM; TGI (MDA-N): 60.2 µM
31 | O=C1[C@H]2ON(c3ccccc3)C(c3ccccc3)[C@H]2C(=O)N1c1ccc(Cc2ccc(N3C(=O)[C@@H]4ON(c5ccccc5)C(c5ccccc5)[C@@H]4C3=O)cc2)cc1 (some centres undefined) | – | > 100 | > 100 | > 100 | > 100 | > 100 | – | –
32 | CCOC(=O)NC1C2CC(=O)OC(O2)C1OC(C)=O (centres undefined) | – | > 100 | > 100 | > 100 | > 100 | > 100 | > 100 | GI50 (T-47D breast): > 100 µM; TGI (T-47D breast): > 100 µM
33 | O=C1O/C(=C\c2ccccc2)N(c2ccccc2)C1=O | – | – | – | – | – | – | – | TGI (T-47D breast): > 100 µM; TGI (MDA-N): > 100 µM
34 | O=C(c1ccccc1)c1c(-c2ccccc2)sc2nc3ccccc3nc12 | > 100 | > 100 | > 100 | – | – | > 100 | > 100 | –
35 | CC(=O)OC1CCn2nnc(CO)c21 (centres undefined) | > 100 | > 100 | > 100 | > 100 | – | > 100 | > 100 | –
36 | C[C@]12CCC(=O)C(O)=C1CC[C@@H]1C2CC[C@]2(C)NC(=O)CCC12 (some centres undefined) | > 100 | > 100 | > 100 | > 100 | > 100 | > 100 | > 100 | –
37 | c1ccc2c(NCCCCCCNc3c4ccccc4nc4ccccc34)c3ccccc3nc2c1 | 2.72 | 1.35 | – | 2.42 | – | 3.05 | 2.48 | TGI (T-47D breast): 12.5 µM; TGI (MDA-N): 1.62 µM
38 | CC(=O)c1cccc(C)c1C(=O)O | – | > 100 | > 100 | > 100 | – | > 100 | > 100 | –
39 | Cc1occc1C(=S)Nc1ccc(Cl)c(C(=O)OC(C(C)C)C(C)C)c1 | – | – | – | – | – | – | – | TGI (T-47D breast): 18.1 µM; TGI (MDA-N): 29 µM
40 | O=C1C=CC(=O)C12CCc1ccccc12 | > 100 | > 100 | > 100 | > 100 | > 100 | > 100 | > 100 | –
41 | CC(=O)CC(N)=O | > 100 | > 100 | > 100 | > 100 | > 100 | > 100 | > 100 | –
42 | Cc1cccc(C)c1CO | > 100 | > 100 | > 100 | > 100 | > 100 | > 100 | > 100 | –
43 | COc1ccc(NC(=O)CC/C(CC(=O)C(C)(C)C)=N\NC(=O)C(=O)NN)cc1 | – | > 100 | > 100 | > 100 | > 100 | > 100 | > 100 | –

Reference: PubChem BioAssay (NCI)
